Laboratory results from paper PMC10884759, “Decreased pyruvate dehydrogenase activity in Tafazzin-deficient cells is caused by dysregulation of pyruvate dehydrogenase phosphatase 1 (PDP1)” (The Journal of Biological Chemistry, 2024).

Biological target: T1, PDP1 (PDH phosphatase 1; PDP1-His6) (Mus musculus, UniProt Q3UV70)
T1 construct: mature polypeptide (transit peptide removed; forward primer encodes ASTPQKFY after start Met), C-terminal His6 from pET-28a, E. coli BL21(DE3) with pGro7 chaperones, Ni-NTA purified
T1 sequence (Q3UV70 72-538): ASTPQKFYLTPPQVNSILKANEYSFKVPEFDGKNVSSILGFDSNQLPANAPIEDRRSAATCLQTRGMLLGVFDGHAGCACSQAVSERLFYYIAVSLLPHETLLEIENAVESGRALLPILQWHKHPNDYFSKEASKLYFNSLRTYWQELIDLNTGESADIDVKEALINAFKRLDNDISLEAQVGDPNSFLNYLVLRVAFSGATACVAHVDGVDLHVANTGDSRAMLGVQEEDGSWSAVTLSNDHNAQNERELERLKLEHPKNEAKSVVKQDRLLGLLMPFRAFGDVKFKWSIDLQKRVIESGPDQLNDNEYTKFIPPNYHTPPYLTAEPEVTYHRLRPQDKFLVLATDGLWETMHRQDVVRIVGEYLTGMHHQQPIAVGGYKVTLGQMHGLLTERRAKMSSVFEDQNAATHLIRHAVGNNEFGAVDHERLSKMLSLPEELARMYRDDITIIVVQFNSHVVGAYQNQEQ
Test: protein-lipid overlay on PVDF, anti-His immunoblot
Type: binding
Conditions: lipid spotted at 31.25-500 μM, 1 μl; pH 7.5, 4 °C overnight, 3% BSA

Row | Compound | protein-lipid overlay on PVDF, anti-His immunoblot
1 | CCCCC/C=C\C/C=C\CCCCCCCC(=O)OC[C@H](COP(=O)(O)OCC(O)COP(=O)(O)OC[C@@H](COC(=O)CCCCCCC/C=C\C/C=C\CCCCC)OC(=O)CCCCCCC/C=C\C/C=C\CCCCC)OC(=O)CCCCCCC/C=C\C/C=C\CCCCC (some centres unmarked) [TLCL] | only PDP1 was shown to bind with TLCL (Fig. 2B)
2 | CCCCCCCC/C=C\CCCCCCCC(=O)OC[C@H](COP(=O)(O)O)OC(=O)CCCCCCC/C=C\CCCCCCCC [phosphatidic acid] | PA is also bound to PDP1 (and to E1)
